From patent US4939124A, “Treatment and diagnosis of dementia” (Laboratorios Serono S.A., priority 1988, dated 1990)
No end group written: not given here.

What was measured:
Male Wistar rats [1] = experiment: Locomotor activity in open field paradigm (OUCEM-86), i.c.v. injection; type: in vivo; settings: for ED50 of change in LA / Emax of change in LA (given as a dose): i.c.v., dose range 0.1 to 10 mcg
Description: (§1) To clarify whether SS and GRF display at the central level the same antagonistic effect that they have at the pituitary level, the effects of these neuropeptides on several behavioral parameters have been studied using the OUCEM-86^TM (Osaka University Computerized Electronic Maze). The system is integrated by the following components: a Programmable Electronic Platform (PEP) (620×620 mm) equipped with 48 photo beam sensors (OPX-T30); a Programming Panel (PP) (Model BECM-0064) for paradigm stimulation; a Shock Generator Scrambler (SGS) (Model BSG-1065) to apply continuous or discontinuous electric current to the PEP; a Control Station (CS) (BEC 16-Bio Computer Control Station BCS-1105; Bio Medica, Ltd., Osaka) which processes inputs/outputs as an interface device to automatically computerize behavioral parameters; and a Computer System (NEC PC-9801 VM2) with 1 megabyte Random Access Memory (RAM) for data processing and experimental setting.
(§2) Male Wistar rats (175-200 g) (N =5-8 rats/group) received intracerebroventricular (i.c.v.) injections of GRF1-44 and SS-14 over a range of 0.1 to 10 mcg. Then the rats were studied in the OUCEM under two different paradigms (e.g., open field and maze paradigms).
The animals were placed in the PEP for 30-minute periods and locomotor activity (LA) was automatically recorded in an open field paradigm. Total LA is represented as total inputs (I/O) including movements in four-footed position (4F) and in two-footed position (2F), grooming, rearing and jumping activity, while linear (horizontal) movements (4F) are represented as pulses per minute (pm) or cm^2 /min

Male Wistar rats [2] = experiment: Locomotor activity and learning in maze paradigm (escape from 1.5 mA shock area), i.c.v. injection; type: in vivo
Description: The animals had to learn to escape from the shock area in order to avoid a continuous 1.5 mA electric shock. Experimental time --30 minutes.
The rats were treated intracerebroventricularly with SS-14 (1 mcg) and GRF1-44 (1 mcg) and their behavior was automatically recorded by computer using the maze paradigm shown in FIG. 1. p/t denotes pulses per time unit (minute). Locomotor activity was quantified in pulses per minute or cm^2 /min. Total inputs (I/O) in neutral position (white bars) and shock position (black bars) denote how many times the animals enter neutral and shock areas. The N/S ratio results from dividing I/O in neutral position by I/O in shock position and is interpreted as an index of learning in the 30-minute experimental period. The positional time (seconds) represents how long the animals stay in neutral (white bars) or shock (black bars) areas. N-sp and S-sp (in seconds) indicate the time-latency per movement or input in neutral (white bars) and shock (black bars) areas, respectively.
as §1, §2
The amount of inputs (I/O) induced by SS was 103.5±29.5 (control =216.25±55.19, t=8.49, p<0.005) in the neutral area (NA) and 77.14±13.5 I/O in the shock area (SA) (control =298±40, t=1.26, n.s.). GRF generated 459.35±32.5 I/O in NA (t=18.13, p<0.005) and 340.5±63.5 I/O in SA (t=9.07, p<0.005) (FIGS. 1C,3). The NA/SA (N/S) ratios for control, SS- and GRF-treated rats were 0.72, 1.33, and 1.35, respectively (FIG. 2).

[3] = test system: female in-patients with primary degenerative dementia (Alzheimer like); experiment: 8-day GRF (1-29) NH2 therapy, MMS Folstein test and Crichton's scale; type: in vivo, human; settings: MMS-Folstein test and Crichton's scale test
Description: Twenty female in-patients with primary degenerative dementia (Alzheimer like) aged 67-84 years were divided in two therapy-groups with GRF (1-29) NH2. All patients were treated with this product for 8 days with either of the following schedules: (I) 250 mcg s.c. twice daily (II) 50 mcg i.v. twice daily Therapy was started after a 15-day wash-out period for psychotropic-drugs. Evolution of patients was assessed using the MMS Folstein test and Chrichton's scale test at 12 hours, 24 hours and 7 days after starting with GRF. The statistical evaluation was made using Friedman test with a risk level p<0,01 (highly significant differences).

| Compound | locomotor activity (LA), open field (Male Wistar rats [1]; 1 mcg i.c.v. (SS-14 / GRF1-44), 30-minute period, control 31.16±6.90 pm) [pm] | ED50 of change in LA (Male Wistar rats [1]) [pmol] | Emax of change in LA (given as a dose) (Male Wistar rats [1]) [nmol] | locomotor activity (LA), maze paradigm (Male Wistar rats [2]; 1 mcg i.c.v., 30 minutes, control 17.12±5.42 pm) [pm] | NA/SA (N/S) ratio (index of learning) (Male Wistar rats [2]; 1 mcg i.c.v., control 0.72) | amount of inputs (I/O) in the neutral area (NA) (Male Wistar rats [2]; 1 mcg i.c.v., control 216.25±55.19) [I/O] | amount of inputs (I/O) in the shock area (SA) (Male Wistar rats [2]; 1 mcg i.c.v., control 298±40) [I/O] | learning abilities (N/S ratio as index) (Male Wistar rats [2]; doses of approximately 6.10×10^-10 mol (SS) and 1.98×10^-10 mol (GRF), i.c.v.) | comparison of SS and GRF in improving learning (Male Wistar rats [2]; maze paradigm, i.c.v.) | overall effect confirmed by re-evaluation after end of administration [3] |
| --- | --- | --- | --- | --- | --- | --- | --- | --- | --- | --- |
| C[C@H](N)C(=O)NCC(=O)N[C@H]1CSSC[C@@H](C(=O)O)NC(=O)[C@H](CO)NC(=O)[C@H]([C@@H](C)O)NC(=O)[C@H](Cc2ccccc2)NC(=O)[C@H]([C@@H](C)O)NC(=O)[C@H](CCCCN)NC(=O)[C@H](Cc2c[nH]c3ccccc23)NC(=O)[C@H](Cc2ccccc2)NC(=O)[C@H](Cc2ccccc2)NC(=O)[C@H](CC(N)=O)NC(=O)[C@H](CCCCN)NC1=O [SS, somatostatin] | 20.88±2.82 | 1830 | 6.10 | 6.01±1.45 | 1.33 | 103.5±29.5 | 77.14±13.5 | improve learning abilities | more effective than GRF in improving learning | – |
| GRF1-29: 1-29 segment of growth hormone releasing factor | – | 297 | 5.95 | – | – | – | – | – | – | – |
| GRF1-44: 1-44 segment of growth hormone releasing factor, injected i.c.v. in rats; called GRF in Examples 1-2 | – | 99.1 | 1.98 | – | – | – | – | – | – | – |
| GRF (1-29) NH2: GRF product given s.c. or i.v. to dementia patients; called GRF in Example 3 (YADAIFTNSYRKVLGQLSARKLLQDIMSR-NH2; UniProt P01286 32-60, looked up, fragment) | – | – | – | – | – | – | – | – | – | significant effect |
